# Assay results from paper PMC10648877, “Novel Substituted Azoloazines with Anticoagulant Activity” (International Journal of Molecular Sciences, 2023).
# Experiments:
# [1] = test system: platelet-poor plasma (PPP); test: Thrombin time (TT), rabbit blood coagulogram in vitro; assay type: biochemical; conditions: rabbit blood in vitro, 100 μM; for TT: M ± m, n = 6
# [2] = test system: platelet-poor plasma (PPP); test: Activated partial thromboplastin time (APTT), rabbit blood coagulogram in vitro; assay type: biochemical; conditions: 100 μM, M ± m, n = 6;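 also: clotting time read chronometrically on a hemocoagulometer with commercial reagent kits, one of several coagulogram parameters alongside thrombin and prothrombin time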
# Protocol: Test compounds and the reference drug were evaluated at a concentration of 100 μM. Effect on rabbit blood coagulograms in vitro was determined chronometrically with a SOLAR hemocoagulometer (Minsk, Belarus) using commercial kits (Technology-Standard, Barnaul, Russia) as per the manufacturer’s instructions. The following parameters were determined: activated partial thromboplastin time, thrombin time, and prothrombin time.
# [3] = test system: platelet-poor plasma (PPP); test: Prothrombin time (PT), rabbit blood coagulogram in vitro; conditions: 100 μM, M ± m, n = 6;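 also: clotting time read chronometrically on a hemocoagulometer using commercial reagent kits, with dabigatran etexilate at the same concentration as reference anticoagulant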
# Protocol: The study was performed on platelet-poor plasma (PPP) stabilized with a 3.8% sodium citrate solution in a ratio of 9:1 according to the method described in [34]. Dabigatran etexilate (Boehringer Ingelheim Pharma GmbH and Co., Ingelheim am Rhein, Germany) was used as the reference drug. Test compounds and the reference drug were evaluated at a concentration of 100 μM. Effect on rabbit blood coagulograms in vitro was determined chronometrically with a SOLAR hemocoagulometer (Minsk, Belarus) using commercial kits (Technology-Standard, Barnaul, Russia) as per the manufacturer’s instructions. The following parameters were determined: activated partial thromboplastin time, thrombin time, and prothrombin time.
SMILES,TT [1],APTT [2],PT [3],increase of thrombin time relative to the control [1],melting point
CCCCn1c2ccccc2c2nc3cc(C)c(C)cc3nc21 [Compound 1g],34.1 ± 0.9 s,30.6 ± 1.6 s,11.7 ± 0.4 s,–,–
CCOC(=O)C1=C(C)Nc2ncnn2C1c1ccccc1 (stereo not drawn) [Compound 8c],34.7 ± 0.7 s,34.6 ± 0.7 s,14.2 ± 0.1 s,–,–
Cc1cc2nc3c4ccccc4n(CCCN(C)C)c3nc2cc1C [Compound 1i],21.9 ± 1.2 s,32.1 ± 4.8 s,13.8 ± 0.3 s,–,–
"O=[N+]([O-])C1=NNc2ncnn2C1O (stereo not drawn) [Compound 14, 6-Nitro-7-hydroxy-4,7-dihydro-1,2,4-triazolo[5,1-c]triazinyl-4 guanidate]",23.8 ± 3.5 s,24.5 ± 0.8 s,14.5 ± 0.5 s,–,–
C1=C(c2ccccc2)n2ncnc2NC1c1ccccc1 (stereo not drawn) [Compound 5a],43.8 ± 4.3 s,26.3 ± 2.9 s,13.4 ± 0.1 s,3.5 times,–
N=C(N)Nc1nnc2ncc(SCc3ccccc3)n2n1 [Compound 15a],32.8 ± 0.8 s,34.0 ± 0.6 s,14.5 ± 0.3 s,–,–
C1=C(c2cccs2)n2ncnc2NC1c1ccccc1 (stereo not drawn) [Compound 5c],41.4 ± 3.1 s,27.6 ± 1.9 s,13.9 ± 0.2 s,–,–
"CCOC(=O)C1=C(C)Nc2ncnn2C1c1ccc(NC(=O)CN)cc1 (stereo not drawn) [Compound 10b, Ethyl 7-(4-(2-aminoacetamido)phenyl)-5-methyl-4,7-dihydro-[1,2,4]triazolo[1,5-a]pyrimi-dine-6-carboxy-late]",27.1 ± 1.4 s,30.6 ± 2.6 s,12.7 ± 0.2 s,–,270 to 272 °C
CCCn1c2ccccc2c2nc3cc(C)c(C)cc3nc21 [Compound 1e],38.0 ± 0.5 s,29.6 ± 0.2 s,13.4 ± 0.1 s,–,–
"COC1C([N+](=O)[O-])=CNc2nc(C(F)(F)F)nn21 (stereo not drawn) [Compound 12a, 2-Trifluoromethyl-6-nitro-7-methoxy-4,7-dihydro[1,5-a]pyrimidyl-4 guanidate]",24.3 ± 3.5 s,25.1 ± 0.8 s,14.2 ± 0.1 s,–,–
CN(C)CCCn1c2ccccc2c2nc3ccccc3nc21 [Compound 1j],22.0 ± 2.7 s,32.5 ± 0.1 s,14.2 ± 0.4 s,–,–
Cc1cc2nc3c4ccccc4n(CCN(C)C)c3nc2cc1C [Compound 1a],22.7 ± 2.0 s,22.1 ± 5.9 s,14.5 ± 0.0 s,–,–
C1=C(c2ccccc2)n2ncnc2NC1c1cccs1 (stereo not drawn) [Compound 5b],21.0 ± 0.0 s,25.9 ± 2.2 s,15.8 ± 0.3 s,–,–
CCCn1c2ccccc2c2nc3ccccc3nc21 [Compound 1f],39.3 ± 1.8 s,24.8 ± 4.2 s,13.1 ± 0.3 s,3.5 times,–
CCCCCCCCCCCCSc1cnc2nnc(NC(=N)N)nn12 [Compound 15b],33.7 ± 0.6 s,34.1 ± 0.5 s,14.0 ± 0.2 s,–,–
c1ccc2nc3c(nc2c1)c1ccccc1n3CCN1CCOCC1 [Compound 1d],26.7 ± 1.3 s,18.2 ± 0.5 s,13.4 ± 0.3 s,–,–
CN(C)CCn1c2ccccc2c2nc3ccccc3nc21 [Compound 1b],23.9 ± 0.9 s,26.8 ± 2.4 s,13.3 ± 0.2 s,–,–
Cc1cc2nc3c4ccccc4n(CCN4CCOCC4)c3nc2cc1C [Compound 1c],26.2 ± 1.0 s,27.1 ± 2.0 s,13.8 ± 0.4 s,–,–
CCCCn1c2ccccc2c2nc3ccccc3nc21 [Compound 1h],35.6 ± 1.1 s,25.7 ± 3.1 s,13.9 ± 0.1 s,–,–
